Data from the supplement of paper PMC10307832.

Experiments:
Assay in all cases: relative viability (nuclei count vs DMSO), 5 days (fraction); higher = more cells survive
TGX 221 + Decitabine = compound: CC1=CN2C(=O)C=C(N=C2C(=C1)C(C)NC3=CC=CC=C3)N4CCOCC4 [TGX 221] + Nc1ncn([C@H]2C[C@H](O)[C@@H](CO)O2)c(=O)n1 [Decitabine] (partner 2 µM)
Procedure, shortened: (§1)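 Lung cancer cell lines in 1536-well plates got either a single drug or a fixed anchor-drug dose together with five library-drug doses (not always all listed) in √10 steps, by pin tool, on the day after seeding. Nuclei were counted after 5 days, and relative viability is the treated-to-vehicle ratio of nuclei counts. Values are medians of duplicate plates.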

[1] = compound: C1=CC=C(C(=C1)C2=CC=C(C=C2)C3=CSC4=C3C(=C(C(=O)N4)C#N)O)O + C[C@]1(O)C[C@@H](c2nc(-c3ccc4ccc(-c5ccccc5)nc4c3)c3c(N)nccn32)C1 [Linsitinib] (partner 1 µM)
Procedure, shortened: as §1

TGX 221 + Foretinib = compound: CC1=CN2C(=O)C=C(N=C2C(=C1)C(C)NC3=CC=CC=C3)N4CCOCC4 [TGX 221] + COc1cc2c(Oc3ccc(NC(=O)C4(C(=O)Nc5ccc(F)cc5)CC4)cc3F)ccnc2cc1OCCCN1CCOCC1 [Foretinib] (partner 0.25 µM)
Procedure, shortened: as §1

Ricolinostat + Alpelisib = compound: O=C(CCCCCCNC(=O)c1cnc(N(c2ccccc2)c2ccccc2)nc1)NO [Ricolinostat] + Cc1nc(NC(=O)N2CCC[C@H]2C(N)=O)sc1-c1ccnc(C(C)(C)C(F)(F)F)c1 [Alpelisib] (partner 2 µM)
Procedure, shortened: as §1

Row | Cell Line | relative viability (TGX 221 + Decitabine; first compound 0.08 µM) | relative viability (TGX 221 + Decitabine; first compound 0.253 µM) | relative viability (TGX 221 + Decitabine; first compound 0.8 µM) | relative viability (TGX 221 + Decitabine; first compound 2.53 µM) | relative viability (TGX 221 + Decitabine; first compound 8 µM) | relative viability ([1]; first compound 0.08 µM) | relative viability ([1]; first compound 0.253 µM) | relative viability ([1]; first compound 0.8 µM) | relative viability ([1]; first compound 2.53 µM) | relative viability ([1]; first compound 8 µM) | relative viability (TGX 221 + Foretinib; first compound 0.08 µM) | relative viability (TGX 221 + Foretinib; first compound 0.253 µM) | relative viability (TGX 221 + Foretinib; first compound 0.8 µM) | relative viability (TGX 221 + Foretinib; first compound 2.53 µM) | relative viability (TGX 221 + Foretinib; first compound 8 µM) | relative viability (Ricolinostat + Alpelisib; first compound 0.08 µM) | relative viability (Ricolinostat + Alpelisib; first compound 0.253 µM) | relative viability (Ricolinostat + Alpelisib; first compound 0.8 µM) | relative viability (Ricolinostat + Alpelisib; first compound 2.53 µM)
1 | NCI-H23 | 0.35 | 0.329 | 0.271 | 0.33 | 0.322 | 0.614 | 0.58 | 0.679 | 0.603 | 0.402 | 0.84 | 0.861 | 1.03 | 0.87 | 0.65 | 0.56 | 0.644 | 0.882 | 0.703
2 | NCI-H322M | 0.628 | 0.683 | 0.693 | 0.62 | 0.678 | 1.07 | 0.587 | 0.874 | 0.909 | 0.787 | 0.924 | 0.869 | 1 | 0.763 | 0.765 | – | 0.829 | 0.795 | 0.715
3 | NCI-H358 | 0.22 | 0.216 | 0.209 | 0.181 | 0.203 | 0.868 | 0.742 | 0.69 | 0.914 | 0.595 | 0.702 | 0.664 | 0.711 | 0.597 | 0.587 | 0.733 | 0.997 | 0.952 | 1.05
4 | NCI-H441 | 0.226 | 0.239 | 0.24 | 0.285 | 0.287 | 0.583 | 0.748 | 0.617 | 0.746 | 0.552 | 1.11 | 0.849 | 0.919 | 0.897 | 0.96 | 0.597 | 0.596 | 0.803 | 0.539
5 | NCI-H460 | 0.488 | 0.442 | 0.489 | 0.453 | 0.401 | – | 0.81 | 0.682 | 1.06 | 0.657 | 1.02 | 0.968 | 1.14 | 0.957 | 0.83 | 0.321 | 0.461 | 0.421 | 0.402
6 | NCI-H520 | 0.449 | 0.428 | 0.306 | 0.341 | 0.335 | 0.712 | 1.08 | 1.26 | 1.21 | 0.829 | 0.582 | 0.544 | 0.509 | 0.372 | 0.427 | – | 0.765 | 0.954 | 0.852
7 | NCI-H596 | 0.987 | 1.16 | 1.14 | 1.08 | 0.963 | 0.967 | 1.17 | 1.13 | 1.1 | 0.733 | 0.844 | 0.928 | 0.856 | 0.894 | 0.797 | 0.429 | 0.492 | 0.446 | 0.463
8 | NCI-H647 | 0.288 | 0.406 | 0.385 | 0.355 | 0.384 | 1.17 | 1.1 | 1.21 | 1.17 | 1.08 | 1.05 | 1.04 | 1.21 | 0.762 | 0.931 | 1.16 | 1.09 | 1.15 | 0.937
9 | NCI-H650 | 0.326 | 0.301 | 0.318 | 0.343 | 0.343 | 0.857 | 0.817 | 0.737 | 0.914 | 0.716 | 0.941 | 0.944 | 0.904 | 0.964 | 0.976 | – | 1.18 | 0.922 | 0.877
10 | NCI-H661 | 0.537 | 0.529 | 0.56 | 0.564 | 0.505 | 0.589 | 0.607 | 0.561 | 0.487 | 0.471 | 1.03 | 0.987 | 1.02 | 1.09 | 0.82 | – | 0.597 | 0.642 | 0.844
11 | NCI-H727 | 0.826 | 0.822 | 0.796 | 0.864 | 0.915 | 0.242 | 0.238 | 0.284 | 0.237 | 0.237 | 0.876 | 1.05 | 1.16 | 1.12 | 1.05 | 0.546 | 0.64 | 0.759 | 0.502
12 | NCI-H838 | 0.443 | 0.448 | 0.462 | 0.447 | 0.452 | 0.738 | 1.22 | 1.08 | 0.988 | 1.04 | 1.04 | 0.952 | 0.945 | 0.799 | 0.7 | 0.903 | 1.08 | 1.04 | 1.08
13 | NCI-H1355 | 0.35 | 0.349 | 0.355 | 0.325 | 0.309 | 0.981 | 0.746 | 0.824 | 0.758 | 0.625 | 0.994 | 0.814 | 0.984 | 0.849 | 0.788 | – | 0.847 | 0.795 | 0.715
14 | NCI-H1395 | 0.712 | 0.685 | 0.662 | 0.615 | 0.614 | – | 1.89 | 1.13 | 1.03 | 1.38 | 0.903 | 0.961 | 0.873 | 0.716 | 0.628 | – | 1.12 | 1.13 | 1.26
15 | NCI-H1437 | 0.574 | 0.56 | 0.619 | 0.545 | 0.574 | 0.668 | 1.37 | 1.03 | 1.21 | 0.81 | 1.26 | 1.21 | 1.25 | 1.19 | 1.06 | 0.888 | 1.03 | 0.907 | 0.722
16 | NCI-H1651 | 0.524 | 0.675 | 0.492 | 0.594 | 0.601 | 0.807 | 0.9 | 1.02 | 0.868 | 0.788 | 0.768 | 0.611 | 0.729 | 0.586 | 0.609 | 0.885 | 0.997 | 0.917 | 0.884
17 | NCI-H1666 | 0.649 | 0.738 | 0.76 | 0.709 | 0.664 | 0.753 | 0.817 | 0.873 | 1 | 0.653 | 1.06 | 0.902 | 0.951 | 0.963 | 0.922 | 0.938 | 0.895 | 0.997 | 0.463
18 | NCI-H1734 | 0.508 | 0.527 | 0.492 | 0.518 | 0.431 | 0.734 | 0.849 | 0.882 | 1.01 | 0.646 | 0.781 | 0.81 | 0.799 | 0.732 | 0.764 | 0.469 | 0.684 | 0.645 | 0.721
19 | NCI-H1755 | 0.723 | 0.657 | 0.655 | 0.631 | 0.632 | 0.934 | 1.17 | 0.889 | 1.19 | 0.97 | 0.926 | 0.884 | 0.82 | 0.763 | 0.781 | 0.771 | – | 0.92 | 0.902
20 | NCI-H1793 | 0.442 | 0.369 | 0.479 | 0.381 | 0.37 | 0.679 | 1.12 | 0.747 | 0.856 | 0.508 | 0.708 | 0.462 | 0.51 | 0.452 | 0.411 | – | 0.633 | 0.698 | 0.755
21 | NCI-H1915 | 0.254 | 0.255 | 0.256 | 0.257 | 0.257 | 1.2 | 1.15 | 1.08 | 1.19 | 1.01 | 0.941 | 1.07 | 1.08 | 1.04 | 1.05 | 1.01 | 1.06 | 1.01 | 0.962
22 | NCI-H1944 | – | 0.449 | 0.442 | 0.443 | 0.389 | 1.19 | 1.18 | 1.09 | 1.14 | 1.19 | 0.844 | 0.819 | 0.873 | 0.746 | 0.612 | 0.649 | 0.783 | 0.74 | 0.58
23 | NCI-H1975 | 0.542 | 0.386 | 0.385 | 0.362 | 0.39 | 0.926 | 0.802 | 1.04 | 1.02 | 0.796 | 0.862 | 0.899 | 0.965 | 0.841 | 0.797 | 0.582 | 0.556 | – | 0.492
24 | NCI-H1993 | 0.593 | 0.693 | 0.663 | 0.598 | 0.547 | 0.617 | 0.882 | 0.713 | 0.709 | 0.802 | 0.723 | 0.787 | 0.755 | 0.71 | 0.664 | 0.619 | 0.76 | 0.711 | 0.73
25 | NCI-H2009 | 0.384 | 0.339 | 0.352 | 0.471 | 0.327 | 1.14 | 1.24 | 1.17 | 1.15 | 1.15 | 1.12 | 1.14 | 1.25 | 1.14 | 0.789 | 1.13 | 1.11 | 1.12 | 0.923
26 | NCI-H2023 | 0.224 | 0.236 | 0.243 | 0.217 | 0.23 | 0.671 | 0.713 | 0.591 | 0.605 | 0.592 | 0.879 | 0.584 | 0.797 | 0.724 | 0.445 | 0.503 | 0.581 | 0.614 | 0.499
27 | NCI-H2085 | 0.59 | 0.524 | 0.548 | 0.414 | 0.451 | 0.878 | 0.904 | 0.935 | 1.09 | 0.773 | 1.06 | 0.845 | 0.96 | 0.428 | 0.401 | – | 1.04 | 0.861 | 0.915
28 | NCI-H2087 | 0.231 | 0.261 | 0.235 | 0.252 | 0.304 | 1.14 | 1.04 | 0.946 | 1.08 | 0.966 | 1.01 | 1.01 | 1.09 | 1.04 | 1.1 | 1.14 | 1.21 | 0.949 | 0.999
